Source: patent publication US8501772B2, “3,8-diaminotetrahydroquinoline derivative” (Zeria Pharmaceutical Co., Ltd., priority 2008, dated 2013)
Where a name gives a salt, the structure may show the parent alone.

What was measured:
[1] = Distribution in the brain (brain-to-plasma partition coefficient); type: in vivo; conditions: rat, male rats, intravenous bolus then constant-rate infusion, steady state
Procedure: Under anesthesia, a test drug was intravenously administered to male rats (1 to 4 mg/kg) and then intravenously administered (14 to 95 μg/kg) at a constant rate. At two hours after starting the infusion, when a steady state was thought to have been reached, the whole blood was collected from each rat and the brain was excised. The concentrations of test drug in brain samples and plasma samples were determined using LC-MS/MS, and the brain-to-plasma partition coefficient (Kp value) was calculated (n=6 or 9).

[2] = Bioavailability in male beagles; type: in vivo; conditions: beagle, dog, plasma, po; male beagles (dogs), intravenous or peroral 3 mg/kg, n=3; read-out: bioavailability (BA)
Procedure: (§1) A test compound was administered to male rats intravenously (1 or 3 mg/kg) or perorally (30 mg/kg), and to male beagles intravenously or perorally (3 mg/kg). After administration, blood was collected at designated times, to thereby obtain plasma samples.

human GHS-R1a = molecular target: T1, human GHS-R1a (Homo sapiens, UniProt Q92847); assay: Agonistic activity by use of a cell line stably expressing human GHS-R1a (intracellular calcium increase); type: cell-based; conditions: hGHS-R1a/CHO cells, percent increase in intracellular calcium vs 100 nM ghrelin; read-out: GHS-R agonistic activity (EC50: nM)
T1 construct: expressed in transfected cells
T1 sequence (Q92847 whole entry): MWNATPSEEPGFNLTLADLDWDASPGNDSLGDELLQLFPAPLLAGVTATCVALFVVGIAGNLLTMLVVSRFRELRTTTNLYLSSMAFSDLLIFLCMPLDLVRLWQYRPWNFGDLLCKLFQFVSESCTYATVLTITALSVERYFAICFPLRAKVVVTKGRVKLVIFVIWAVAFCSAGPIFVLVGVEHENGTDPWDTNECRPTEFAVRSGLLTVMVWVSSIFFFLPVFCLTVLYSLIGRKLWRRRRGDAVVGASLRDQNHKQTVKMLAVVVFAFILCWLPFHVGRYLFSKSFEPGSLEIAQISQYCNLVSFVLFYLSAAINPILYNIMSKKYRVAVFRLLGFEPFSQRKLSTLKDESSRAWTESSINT
Procedure: CHO-K1 cells were transfected with human GHS-R1a genes, to thereby provide cells stably expressing GHS-R1a (hGHS-R1a/CHO), and the agonistic activity of each compound was evaluated by use of the cells based on percent increase in intracellular calcium as an index.
The hGHS-R1a/CHO cells were inoculated at 6×10^4 cells/well in a 96-well plate (Clear bottom/Black plate, product of Corning), and cultured in Ham's F12 medium containing 10% fetal bovine serum at 37° C. and 5% CO2 for 18 hours. After culture, the medium was removed, and then the hGHS-R1a/CHO cells were cultured for two hours in a Hanks' balanced salt solution/HEPES (HBSS/HEPES, 100 μL) containing a calcium fluorescent indicator (4 μM Fluo-3AM, product of Dojin), 2 mM Probenecid, 0.1% Pluronic F-127, and 0.1% BSA, whereby the indicator was incorporated into the cells. After washing the cells, HBSS/HEPES (175 μL/well) containing 2 mM Probenecid and 0.1% BSA was added to the plate, and the fluorescence before and after addition of each test compound was determined by means of FLEXstation (Ex: 485 nm, Em: 525 nm, product of Molecular Devices). Each test compound was multi-fold diluted with dimethyl sulfoxide and then diluted with HBSS/HEPES containing 2 mM Probenecid, 0.04% Pluronic F-127, and 0.1% BSA, to thereby attain a final concentration of interest. The thus-diluted solution (25 μL/well) was added to the wells.
Agonistic activity(%)=(A−B)/(C−D)×100
A: Fluorescence intensity after addition of test compound
B: Fluorescence intensity before addition of test compound
C: Fluorescence intensity after addition of 100 nM ghrelin
D: Fluorescence intensity before addition of ghrelin

[3] = Bioavailability in male rats; type: in vivo; conditions: rat, plasma, oral, intravenous 1 or 3 mg/kg, peroral 30 mg/kg, n=3, read-out: bioavailability (BA)
Procedure: as §1

beagles = assay: Toxicity test: single oral administration to dogs; type: in vivo; conditions: male beagles, single peroral
Procedure: An encapsulated test drug was forcedly administered to beagles, and acute toxicity of the drug was studied.
Compound of Example 34a was singly perorally administered to male beagles at a dose of 30 and 100 mg/kg. […] General conditions of the beagles were observed, and hematologic and blood biochemical tests were carried out.

[4] = system: model rats with IL-1β-induced cachexia; assay: Improvement of cachexia induced by IL-1β; type: in vivo; conditions: SD rats, rmIL-1β into cerebral ventricle, peroral 100 mg/kg
From the text: By use of model rats with IL-1β-induced cachexia, the effects of a test compound on ameliorating reduction in body weight and in food intake were examined.
SD rats (male, 8-week old, 270 to 340 g, Japan Charles River) were conditioned in a cage (one rat/cage), and were allowed water and a diet (CRF-1, product of Oriental Yeast Co., Ltd.) ad libitum. The illumination conditions employed in the house were as follows: 10:30 to 22:30 (dark) and 22:30 to 10:30 (light).
An osmotic pump (Mini-Osmotic Pump Model 2001, product of ALZET, filled with saline) was connected to a canula, and the canula was inserted into the cerebral ventricle of a rat. The rats obtained were conditioned for three days, and the osmotic pump was changed to another osmotic pump filled with recombinant mouse IL-1β (rmIL-1β). By means of the pump, rmIL-1β was continuously injected into the cerebral ventricle ([…]), to thereby induce cachexia. Two days after starting of injection of IL-1β, a test compound dissolved in 0.5% methylcellulose solution was perorally administered to each rat just before switching-off the light. During the period of administration of the test compound, the body weight and the food intake were measured every 24 hours.

CYP3A4 = molecular target: T2, CYP3A4 (Homo sapiens, UniProt P08684); assay: CYP3A4 inhibitory activity, human liver microsomes, midazolam hydroxylation; type: in vitro ADME
T2 construct: determined by use of human liver microsomes based on the midazolam hydroxylation activity as an index; from tissue; host or cells: human liver microsomes
T2 sequence (P08684 whole entry): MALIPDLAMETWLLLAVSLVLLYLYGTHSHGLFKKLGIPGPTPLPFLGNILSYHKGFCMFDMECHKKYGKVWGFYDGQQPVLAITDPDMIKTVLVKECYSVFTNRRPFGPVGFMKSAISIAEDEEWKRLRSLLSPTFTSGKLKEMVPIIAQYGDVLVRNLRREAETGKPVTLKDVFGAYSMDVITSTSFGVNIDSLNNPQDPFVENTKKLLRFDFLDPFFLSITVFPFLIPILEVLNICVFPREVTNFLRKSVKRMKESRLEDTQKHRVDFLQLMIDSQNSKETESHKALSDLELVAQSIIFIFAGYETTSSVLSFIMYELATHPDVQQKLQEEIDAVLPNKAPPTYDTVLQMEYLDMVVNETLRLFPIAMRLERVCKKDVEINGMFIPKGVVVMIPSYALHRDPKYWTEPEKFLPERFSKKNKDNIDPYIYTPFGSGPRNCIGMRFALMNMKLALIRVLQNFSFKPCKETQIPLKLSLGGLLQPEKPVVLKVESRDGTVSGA
Procedure: The in vitro CYP3A4 inhibitory activity was determined by use of human liver microsomes based on the midazolam hydroxylation activity as an index, and the Ki values were calculated.

SMILES | Kp at 2 h [1] | bioavailability [2] | EC50 (human GHS-R1a) | bioavailability [3] | acute toxicity, general conditions (beagles; 30 mg/kg) | reduction in body weight caused by IL-1β [4] | reduction in food intake caused by IL-1β [4] | Ki (CYP3A4) | acute toxicity, general conditions (beagles; maximum dose 100 mg/kg)
CN(C)N(C)C(=O)[C@@]1(Cc2ccccc2)CCCN(C(=O)[C@@H](Cc2c[nH]c3ccccc23)NC(=O)C(C)(C)N)C1 [Anamorelin hydrochloride, anamorelin hydrochloride, reference compound] | 0.42 | 19% | 0.15 nM | 21% | serious anomalous disorders in general conditions such as vomiting, infrequent pulse, tremble, and disorders in walking |  |  |  | 
CC(C)C[C@@H](NC(=O)C(C)(C)N)C(=O)NC1Cc2cccc(N3CCCC3=O)c2N(Cc2ccsc2)C1=O (stereo partly drawn) [Example 34a, (2R)-2-(2-amino-2-methylpropanamido)-4-methyl-N-[2-oxo-8-(2-oxopyrrolidin-1-yl)-1-(thiophen-3-ylmethyl)-1,2,3,4-tetrahydroquinolin-3-yl]pentanamide hydrochloride] | 0.06 | 84% | 0.38 nM | 35% |  | significantly suppressed | significantly suppressed | 86000 nM | only slight vomiting
